This is an account of results in ChEMBL document CHEMBL1201862, “PubChem BioAssay data set” (2004).

Common to all, as to test: NCI-60 cell line screen, 48 h
Experiment [1] concerns NCI-H226.
The test system of experiment [2] is UO-31.
Experiment [3] concerns Malme-3M.
For experiment [4], the system named is U-251.
Experiment [5] relates to SF-539.
Experiment [6] deals with SNB-75.
The test system of experiment [7] is SK-MEL-5.
Experiment [8] relates to COLO 205.
The test system of experiment [9] is NCI-H23.
The test system of experiment [10] is DU-145.
Experiment [11] has as its system RPMI-8226.
The subject of experiment [12] is HL-60.
Experiment [13] has as its system EKVX.
For experiment [14], the system named is IGROV-1.
The subject of experiment [15] is SW-620.
The test system of experiment [16] is SK-MEL-28.
For experiment [17], the system named is OVCAR-8.
Experiment [18] concerns M14.
The subject of experiment [19] is UACC-62.

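How tested: cells in 96-well plates exposed to compound for 48 hours at five concentrations. GI50 marks 50% less growth.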 Activity calls are given as the source filed them. No stated cut-off is given here; in the data, active = GI50 up to about 1.1 µM and inactive = higher.

Turning to `Oc1ccc(Cl)cc1-c1cc(-c2ccccc2)nc(S)n1`, the GI50 is > 100 µM (inactive) in experiment [1]; 24 µM (inactive) in experiment [2]; > 100 µM (inactive) in experiment [3]; 17.4 µM (inactive) in [4]; 42.6 µM (inactive) in experiment [5]; 21.5 µM (inactive) in experiment [6]. The GI50 in experiment [7] is > 100 µM (inactive); in [8], > 100 µM (inactive); in [9] it was 88.5 µM (inactive); in [10], > 100 µM (inactive); in experiment [11], > 100 µM (inactive); in [12], > 100 µM (inactive). Further, the GI50 in experiment [13] was 4.52 µM (inactive); in [14], > 100 µM (inactive); in experiment [15] it was > 100 µM (inactive); in [16], > 100 µM (inactive); in [17] it was > 100 µM (inactive); in experiment [18], > 100 µM (inactive).

As for `Cc1cn(C2CC(n3cc(Cn4cc(Br)c(=O)[nH]c4=O)nn3)C(CO)O2)c(=O)[nH]c1=O` (stereo not given), the GI50 in experiment [2] is 88.1 µM (inactive); in [3], > 100 µM (inactive); in experiment [4], 39.1 µM (inactive); in [5], > 100 µM (inactive); in experiment [6], 60.5 µM (inactive); in experiment [7], 89.5 µM (inactive). In addition, the GI50 is > 100 µM (inactive) in experiment [8]; > 100 µM (inactive) in [9]; > 100 µM (inactive) in experiment [10]; 52.6 µM (inactive) in experiment [11]; 0.0395 µM (active) in [12]; > 100 µM (inactive) in experiment [19]. In addition, the GI50 was > 100 µM (inactive) in experiment [13]; 80 µM (inactive) in [14]; > 100 µM (inactive) in [15]; > 100 µM (inactive) in experiment [16]; 13 µM (inactive) in experiment [17]; > 100 µM (inactive) in experiment [18].

On to `CC1=CC2C(C(C)C)CC1C1C(=O)OC(=O)C21` (stereo not given), for which the GI50 is > 100 µM (inactive) in experiment [1]; > 100 µM (inactive) in experiment [2]; 52 µM (inactive) in [3]; 64.1 µM (inactive) in experiment [4]; > 100 µM (inactive) in [5]; > 100 µM (inactive) in [6]. For the same compound, the GI50 in experiment [7] is 85.5 µM (inactive); in experiment [8], > 100 µM (inactive); in experiment [9] it was > 100 µM (inactive); in experiment [10], > 100 µM (inactive); in experiment [12], 23.3 µM (inactive); in experiment [19], > 100 µM (inactive). Also, the GI50 in [13] was > 100 µM (inactive); in experiment [14], 14.4 µM (inactive); in experiment [15] it was 86.9 µM (inactive); in [16], > 100 µM (inactive); in experiment [17] it was 65.6 µM (inactive); in [18] it was > 100 µM (inactive).

With `CCOC(=O)c1c2c(n(Cc3ccccc3)c1C)C(=O)C(=O)c1ccccc1-2`, the GI50 is 0.55 µM (active) in [1]; 0.906 µM (active) in experiment [2]; 0.0968 µM (active) in experiment [3]; 0.263 µM (active) in experiment [4]; 0.24 µM (active) in experiment [5]; 0.309 µM (active) in experiment [6]. Further, the GI50 was 0.295 µM (active) in experiment [7]; 0.705 µM (active) in [8]; 0.231 µM (active) in experiment [9]; 0.465 µM (active) in [10]; 0.119 µM (active) in experiment [11]; 0.0129 µM (active) in experiment [12]. Also, the GI50 in experiment [19] is 0.284 µM (active); in [13], 0.726 µM (active); in experiment [14] it was 1.15 µM (inactive); in [15] it was 0.18 µM (active); in experiment [16] it was 0.177 µM (active); in experiment [17], 0.237 µM (active). Further, the GI50 in experiment [18] is 0.452 µM (active).

Consider `O=c1c2nn[nH]c2nc2n1CC(c1ccccc1)S2` (stereo not given), for which the GI50 in experiment [1] is > 100 µM (inactive); in experiment [2] it was 45.3 µM (inactive); in [3] it was > 100 µM (inactive); in [4], > 100 µM (inactive); in experiment [5] it was > 100 µM (inactive); in [6], 72.1 µM (inactive). For the same compound, the GI50 in experiment [7], in experiment [8], in [9], in experiment [10], in experiment [11] and in [12] was > 100 µM (inactive) throughout. Moreover, the GI50 in experiment [19], in experiment [13], in experiment [14], in [15], in [16] and in experiment [17] was > 100 µM (inactive) in each case.

In the case of `COc1ccccc1/C=C1\SC(=S)N(/C=C2\C(=O)Oc3ccccc3C2=O)C1=O`, the GI50 in experiment [1] was 35.3 µM (inactive); in experiment [2], 23.2 µM (inactive); in [3] it was 23.2 µM (inactive); in experiment [4], 34.3 µM (inactive); in experiment [5], 29 µM (inactive); in experiment [6] it was 22 µM (inactive). In addition, the GI50 is 20.5 µM (inactive) in experiment [7]; 24 µM (inactive) in experiment [8]; 1.62 µM (inactive) in experiment [9]; 33.3 µM (inactive) in experiment [10]; 23.8 µM (inactive) in [19]; 24.1 µM (inactive) in experiment [13]. The GI50 in experiment [14] is 36.6 µM (inactive); in [15], 43.2 µM (inactive); in experiment [17], 28.8 µM (inactive); in experiment [18], 36.2 µM (inactive).

In the case of `C/C(Cc1ccc2c(c1)OCO2)=N\NC(=O)C(C)Sc1nnc(SC(C)C(=O)N/N=C(\C)Cc2ccc3c(c2)OCO3)s1` (stereo not given), the GI50 is > 100 µM (inactive) in experiment [1]; > 100 µM (inactive) in experiment [2]; > 100 µM (inactive) in experiment [3]; > 100 µM (inactive) in experiment [4]; 83.9 µM (inactive) in experiment [6]; 69.3 µM (inactive) in experiment [7]. The GI50 in experiment [8] is > 100 µM (inactive); in experiment [9], > 100 µM (inactive); in experiment [10], > 100 µM (inactive); in experiment [11], 37.6 µM (inactive); in experiment [12], > 100 µM (inactive); in experiment [19], > 100 µM (inactive). Also, the GI50 in experiment [13] is 81.3 µM (inactive); in [14], > 100 µM (inactive); in experiment [15] it was > 100 µM (inactive); in [16], > 100 µM (inactive); in experiment [17], > 100 µM (inactive); in [18], > 100 µM (inactive).

Consider `C[C@H](CCC(=O)O)[C@H]1CC[C@H]2[C@@H]3[C@H](O)[C@H](O)[C@@H]4C[C@H](O)CC[C@]4(C)[C@H]3CC[C@]12C` [HYOCHOLIC ACID], for which the GI50 in [1], in experiment [2], in experiment [3], in experiment [4], in experiment [5] and in [6] was > 100 µM (inactive) each time. Also, the GI50 in [8], in experiment [9], in [10], in experiment [11], in experiment [12] and in [19] was > 100 µM (inactive) in each case. The GI50 in experiment [13], in experiment [14], in experiment [15], in [16], in experiment [17] and in experiment [18] was > 100 µM (inactive) in each case.

In the case of `CN1C(=O)C(O)CC1c1ccc(C(F)(F)F)cc1` (stereo not given), the GI50 in experiment [1], in experiment [2], in experiment [3], in experiment [4], in [5] and in [6] was > 100 µM (inactive) each time. Moreover, the GI50 in experiment [7], in [8], in experiment [9], in experiment [10], in experiment [11] and in experiment [12] was > 100 µM (inactive) throughout. For the same compound, the GI50 in [19], in [13], in experiment [14], in [15], in experiment [16] and in experiment [17] was > 100 µM (inactive) in each case. In addition, the GI50 in experiment [18] is > 100 µM (inactive).

For the compound `COC(=O)CCC(NC(=O)C(C)NC(=O)COC1C(O)C(OC(=O)CCNc2c3ccccc3nc3cccc([N+](=O)[O-])c23)OC(OCc2ccccc2)C1NC(C)=O)C(N)=O` (stereo not given), the GI50 in experiment [1] was > 10 µM (inactive); in experiment [2], > 10 µM (inactive); in experiment [3], 2.22 µM (inactive); in experiment [4], 9.98 µM (inactive); in [5], > 10 µM (inactive); in experiment [6] it was > 10 µM (inactive). Moreover, the GI50 in experiment [7] was 1.61 µM (inactive); in experiment [9], > 10 µM (inactive); in [10], 2.6 µM (inactive); in experiment [19], 3.08 µM (inactive); in experiment [13], > 10 µM (inactive); in experiment [14], > 10 µM (inactive). Moreover, the GI50 in [15] is 0.114 µM (active); in experiment [17] it was 6.5 µM (inactive); in experiment [18] it was 2.79 µM (inactive).

As to `Clc1cc(Cl)cc(C2ON=C(c3ccccc3)N2C23CC4CC(CC(C4)C2)C3)c1` (stereo not given), the GI50 in experiment [1], in experiment [2], in experiment [3], in experiment [4], in experiment [5] and in experiment [6] was > 10 µM (inactive) throughout. Besides, the GI50 in [7], in [8], in experiment [9], in experiment [10], in [11] and in experiment [19] was > 10 µM (inactive) throughout. The GI50 in [13], in experiment [14], in experiment [15], in [16], in experiment [17] and in experiment [18] was > 10 µM (inactive) in each case.
